# Biological target: T1, GluA1o-γ8 (Homo sapiens, UniProt P42261+Q8WXS5)
# T1 construct: expressed in transfected cells
# Assay: Calcium flux assay (FLIPR), inhibition of glutamate response of GluA1o-γ8 channel in HEK293 cells
# Type: cell-based
# Details: HEK293 cells stably expressing GRIA1o-CACNG8 fusion; 15 μM glutamate; pIC50 = negative log of the IC50 in molar
# From the text: This assay was used to test compounds for their ability to inhibit TARP γ8 dependent AMPA receptor activity. The AMPA receptor is a non-selective cation channel activated by glutamate. Ionotropic glutamate receptors normally desensitize too rapidly to allow detectable calcium influx in a FLIPR assay (Strange et al. (2006). “Functional characterisation of homomeric ionotropic glutamate receptors GluR1-GluR6 in a fluorescence-based high throughput screening assay.” Comb Chem High Throughput Screen 9(2): 147-158). But, this desensitization is incomplete, and a substantial steady-state current remains in the sustained presence of glutamate (Cho et al. (2007). “Two families of TARP isoforms that have distinct effects on the kinetic properties of AMPA receptors and synaptic currents.” Neuron 55(6): 890-904).
# An in vitro assay was used to determine the potency of test compounds as inhibitors of the glutamate response of the channel formed by GluA1o-γ8. To ensure a 1:1 stoichiometry of GluA1o and γ8 subunits in the expressed channel, a fusion of the cDNAs for GRIA1o and CACNG8 was used. Following Shi et al (2009) “The stoichiometry of AMPA receptors and TARPs varies by neuronal cell type.” Neuron 62(5): 633-640), the C-terminus of the cDNA for GRIA1o was fused to the N-terminus of the cDNA for γ8. The linker sequence was QQQQQQQQQQEFAT. Channels expressed with this construct appear to have similar properties to channels formed by co-expression of GRIA1o with an excess of CACNG8 (Shi et al. 2009). A clonal cell line in HEK293 cells stably expressing this construct, with a geneticin selection marker, was generated for use in this assay. Cell expressing the GRIA1o-CACNG8 fusion construct were grown in a monolayer in 96- or 384-well microtiter plates. They were washed with assay buffer (135 mM NaCl, 4 mM KCl, 3 mM CaCl2, 1 mM MgCl2, 5 mM glucose, 10 mM HEPES, pH 7.4, 300 mOs) using a Biotek EL405 plate washer. The cells were then loaded with a calcium-sensitive dye (Calcium-5 or Calcium-6, Molecular Devices) and the test compounds at a range of concentrations. Calcium flux following the addition of 15 μM glutamate was monitored using a Molecular Devices FLIPR Tetra.
# The fluorescence in each well was normalized to the fluorescence of negative and positive control wells. The negative control wells had no added compounds, and the positive control wells had been incubated with 10 μM CP465022 (a non-subtype-selective AMPA receptor antagonist) (Lazzaro et al. (2002). “Functional characterization of CP-465,022, a selective, noncompetitive AMPA receptor antagonist.” Neuropharmacology 42(2): 143-153). The responses to glutamate as functions of the test compound concentrations were fitted to a four-parameter logistic function. The fitted parameter corresponding to the midpoint was taken to be the potency of inhibition of the compound. The data in Table 4 below illustrates the observed potentcy for the compounds described herein. pIC50 refers to the negative log of the IC50 in molar.
# T1 sequence (P42261+Q8WXS5 fused): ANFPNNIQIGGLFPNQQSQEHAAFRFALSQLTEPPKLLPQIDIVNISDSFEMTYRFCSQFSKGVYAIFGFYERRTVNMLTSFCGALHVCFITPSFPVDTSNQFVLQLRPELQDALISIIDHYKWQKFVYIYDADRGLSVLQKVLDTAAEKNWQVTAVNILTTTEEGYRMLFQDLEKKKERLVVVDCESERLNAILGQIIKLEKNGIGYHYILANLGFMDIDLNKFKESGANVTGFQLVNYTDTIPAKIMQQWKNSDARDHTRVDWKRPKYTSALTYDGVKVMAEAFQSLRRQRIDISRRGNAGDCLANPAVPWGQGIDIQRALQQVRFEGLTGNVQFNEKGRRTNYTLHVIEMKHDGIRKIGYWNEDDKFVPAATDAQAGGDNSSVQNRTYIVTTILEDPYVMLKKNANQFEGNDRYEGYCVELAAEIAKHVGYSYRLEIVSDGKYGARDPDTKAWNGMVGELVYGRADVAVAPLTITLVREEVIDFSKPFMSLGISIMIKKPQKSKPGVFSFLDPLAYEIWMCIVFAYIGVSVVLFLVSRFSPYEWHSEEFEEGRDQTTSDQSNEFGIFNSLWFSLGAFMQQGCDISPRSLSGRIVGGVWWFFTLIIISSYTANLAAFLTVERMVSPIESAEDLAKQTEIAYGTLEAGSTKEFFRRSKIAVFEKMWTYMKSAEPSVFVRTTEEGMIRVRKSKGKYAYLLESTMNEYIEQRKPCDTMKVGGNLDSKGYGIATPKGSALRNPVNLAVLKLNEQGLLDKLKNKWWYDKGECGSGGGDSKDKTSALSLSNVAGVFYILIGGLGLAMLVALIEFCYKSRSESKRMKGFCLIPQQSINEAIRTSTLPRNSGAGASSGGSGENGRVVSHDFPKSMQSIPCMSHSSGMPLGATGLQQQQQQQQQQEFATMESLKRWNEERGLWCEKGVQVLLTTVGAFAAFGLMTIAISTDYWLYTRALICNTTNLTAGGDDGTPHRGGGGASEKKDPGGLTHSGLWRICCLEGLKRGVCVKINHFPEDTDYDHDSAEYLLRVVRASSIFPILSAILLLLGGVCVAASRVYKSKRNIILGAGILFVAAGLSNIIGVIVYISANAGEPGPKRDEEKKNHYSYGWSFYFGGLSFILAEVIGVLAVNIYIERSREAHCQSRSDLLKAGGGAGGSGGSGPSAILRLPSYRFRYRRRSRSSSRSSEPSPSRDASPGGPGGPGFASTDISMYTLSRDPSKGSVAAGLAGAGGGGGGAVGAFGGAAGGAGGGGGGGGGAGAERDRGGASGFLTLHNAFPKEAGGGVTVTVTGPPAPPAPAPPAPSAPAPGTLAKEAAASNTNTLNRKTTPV
row,Compound,GluR1-γ8 pIC50
1,"Cc1cc(-c2c(Cl)cccc2OC(F)(F)F)cc2c1NC(=O)C2 [Example 127, 5-[2-Chloro-6-(trifluoromethoxy)phenyl]-7-methyl-indolin-2-one]",9.7
2,"Cc1cc(-c2c(Cl)cncc2OC(F)F)cc2c1NC(=O)C2 [Example 146, 5-(3-Chloro-5-(difluoromethoxy)pyridin-4-yl)-7-methylindolin-2-one]",8.1
3,"Cc1cccc(C)c1-c1ccc2c(c1)CC(=O)N2 [Example 1, 5-(2,6-Dimethylphenyl)indolin-2-one]",6.4

# Same assay, conditions: HEK293 cells stably expressing GRIA1o-CACNG8 fusion; 15 μM glutamate; pIC50 = negative log of the IC50 in molar; read-out: GluR1-γ8 pIC50 (converted)
row,IC50,Compound
1,0.0501 nM,"CCc1cc(-c2c(Cl)cccc2OC(F)(F)F)cc2c1NC(=O)C2 [Example 168, 5-[2-Chloro-6-(trifluoromethoxy)phenyl]-7-ethyl-indolin-2-one]"
2,10 nM,"Cc1cc(-c2c(C)cncc2C)cc2c1NC(=O)C2 [Example 148, 5-(3,5-Dimethyl-4-pyridyl)-7-methyl-indolin-2-one]"
3,> 10000 nM,"COC1CCN(c2cccc(-c3cc(F)c4c(c3)CC(=O)N4)c2Cl)CC1 [Example 121, 5-(2-Chloro-3-(4-methoxypiperidin-1-yl)phenyl)-7-fluoroindolin-2-one]"
4,0.501 nM,"O=C1Cc2cc(-c3c(Cl)cccc3OC(F)(F)F)cc(C(F)(F)F)c2N1 [Example 176, 5-[2-Chloro-6-(trifluoromethoxy)phenyl]-7-(trifluoromethyl)indolin-2-one]"
5,0.0631 nM,"Cc1cccc(Cl)c1-c1cc(Cl)c2c(c1)CC(=O)N2 [Example 165, 7-Chloro-5-(2-chloro-6-methyl-phenyl)indolin-2-one]"
6,0.0794 nM,"N#Cc1ccc(Cl)c(-c2cc(Cl)c3c(c2)CC(=O)N3)c1OC(F)(F)F [Example 156, 4-Chloro-3-(7-chloro-2-oxo-indolin-5-yl)-2-(trifluoromethoxy)benzonitrile]"
7,3.16 nM,"Cc1cc(-c2c(Cl)ccnc2Cl)cc2c1NC(=O)C2 [Example 152, 5-(2,4-Dichloro-3-pyridyl)-7-methyl-indolin-2-one]"
8,3.16 nM,"Cc1cc(-c2c(C)cccc2F)cc2c1NC(=O)C2 [Example 136, 5-(2-Fluoro-6-methyl-phenyl)-7-methyl-indolin-2-one]"
9,126 nM,"COc1cccc(F)c1-c1cc(C)c2c(c1)CC(=O)N2 [Example 139, 5-(2-Fluoro-6-methoxy-phenyl)-7-methyl-indolin-2-one]"
10,3.16 nM,"Cc1cc(-c2c(Cl)cncc2OC(F)(F)F)cc2c1NC(=O)C2 [Example 145, 5-[3-Chloro-5-(trifluoromethoxy)-4-pyridyl]-7-methyl-indolin-2-one]"
11,0.794 nM,"Cc1cccc(F)c1-c1cc(Cl)c2c(c1)CC(=O)N2 [Example 166, 7-Chloro-5-(2-fluoro-6-methyl-phenyl)indolin-2-one]"
12,7.94 nM,"O=C1Cc2cc(-c3c(Cl)cncc3Cl)cc(Cl)c2N1 [Example 159, 7-Chloro-5-(3,5-dichloro-4-pyridyl)indolin-2-one]"
13,1.26 nM,"Cc1cc(-c2c(C)cccc2C(F)(F)F)cc2c1NC(=O)C2 [Example 137, 7-Methyl-5-[2-methyl-6-(trifluoromethyl)phenyl]indolin-2-one]"
14,7.94 nM,"COc1nccc(C)c1-c1cc(Cl)c2c(c1)CC(=O)N2 [Example 162, 7-Chloro-5-(2-methoxy-4-methyl-3-pyridyl)indolin-2-one]"
15,6.31 nM,"O=C1Cc2cc(-c3c(Cl)cncc3OC(F)(F)F)cc(Cl)c2N1 [Example 157, 7-Chloro-5-(3-chloro-5-(trifluoromethoxy)pyridin-4-yl)indolin-2-one]"
16,31.6 nM,"O=C1Cc2cc(-c3c(Cl)cccc3Cl)ccc2N1 [Example 4, 5-(2,6-Dichlorophenyl)indolin-2-one]"
17,0.398 nM,"Cc1cc(-c2c(C)cccc2Cl)cc2c1NC(=O)C2 [Example 135, 5-(2-Chloro-6-methyl-phenyl)-7-methyl-indolin-2-one]"
18,15.8 nM,"CCc1cc(-c2c(C)cncc2C)cc2c1NC(=O)C2 [Example 173, 5-(3,5-Dimethyl-4-pyridyl)-7-ethyl-indolin-2-one]"
19,0.2 nM,"O=C1Cc2cc(-c3c(Cl)cccc3OC(F)(F)F)cc(OC(F)(F)F)c2N1 [Example 177, 5-[2-Chloro-6-(trifluoromethoxy)phenyl]-7-(trifluoromethoxy)indolin-2-one]"

row,IC50,Compound
1,100 nM,"Cc1cccc(Cl)c1-c1ccc2c(c1)CC(=O)N2 [Example 3, 5-(2-Chloro-6-methyl-phenyl)indolin-2-one]"
2,0.158 nM,"CC(C)(C#N)c1cccc(Cl)c1-c1cc(Cl)c2c(c1)CC(=O)N2 [Example 155, 2-[3-Chloro-2-(7-chloro-2-oxo-indolin-5-yl)phenyl]-2-methyl-propanenitrile]"
3,5.01 nM,"CCc1cc(-c2c(Cl)cncc2Cl)cc2c1NC(=O)C2 [Example 174, 5-(3,5-Dichloro-4-pyridyl)-7-ethyl-indolin-2-one]"
4,3.16 nM,"Cc1cc(-c2c(C)cccc2OC(F)F)cc2c1NC(=O)C2 [Example 129, 5-[2-(Difluoromethoxy)-6-methyl-phenyl]-7-methyl-indolin-2-one]"
5,12.6 nM,"N#Cc1ccc(Cl)c(-c2ccc3c(c2)CC(=O)N3)c1OC(F)(F)F [Example 115, 4-Chloro-3-(2-oxoindolin-5-yl)-2-(trifluoromethoxy)benzonitrile]"
6,158 nM,"Cc1ccnc(C)c1-c1cc(Cl)c2c(c1)CC(=O)N2 [Example 161, 7-Chloro-5-(2,4-dimethyl-3-pyridyl)indolin-2-one]"
7,5.01 nM,"Cc1cc(-c2c(Cl)cccc2C#N)cc2c1NC(=O)C2 [Example 143, 3-Chloro-2-(7-methyl-2-oxoindolin-5-yl)benzonitrile]"
8,7.94 nM,"O=C1Cc2cc(-c3c(Cl)cncc3OC(F)F)cc(Cl)c2N1 [Example 158, 7-Chloro-5-[3-chloro-5-(difluoromethoxy)-4-pyridyl]indolin-2-one]"
9,6.31 nM,"Cc1ccnc(Cl)c1-c1cc(Cl)c2c(c1)CC(=O)N2 [Example 160, 7-Chloro-5-(2-chloro-4-methyl-3-pyridyl)indolin-2-one]"
10,15.8 nM,"O=C1Cc2cc(-c3c(Cl)cccc3OC(F)F)cc(F)c2N1 [Example 118, 5-(2-Chloro-6-(difluoromethoxy)phenyl)-7-fluoroindolin-2-one]"
11,0.0794 nM,"O=C1Cc2cc(-c3c(Cl)cccc3OC(F)(F)F)cc(Cl)c2N1 [Example 153, 7-Chloro-5-[2-chloro-6-(trifluoromethoxy)phenyl]indolin-2-one]"
12,316 nM,"O=C1Cc2cc(-c3c(Cl)cncc3Cl)cc(F)c2N1 [Example 126, 5-(3,5-Dichloro-4-pyridyl)-7-fluoro-indolin-2-one]"
13,3.16 nM,"CCc1cc(-c2c(C)cccc2C#N)cc2c1NC(=O)C2 [Example 169, 2-(7-Ethyl-2-oxo-indolin-5-yl)-3-methyl-benzonitrile]"
14,15.8 nM,"Cc1cc(-c2c(C)ccnc2Cl)cc2c1NC(=O)C2 [Example 149, 5-(2-Chloro-4-methyl-3-pyridyl)-7-methyl-indolin-2-one]"
15,12.6 nM,"N#Cc1ccc(OC(F)(F)F)c(-c2cc(F)c3c(c2)CC(=O)N3)c1Cl [Example 124, 2-Chloro-3-(7-fluoro-2-oxo-indolin-5-yl)-4-(trifluoromethoxy)benzonitrile]"
16,25.1 nM,"CC(C)(C#N)c1cccc(Cl)c1-c1cc(F)c2c(c1)CC(=O)N2 [Example 119, 2-(3-Chloro-2-(7-fluoro-2-oxoindolin-5-yl)phenyl)-2-methylpropanenitrile]"
17,31.6 nM,"N#CCc1cccc(Cl)c1-c1ccc2c(c1)CC(=O)N2 [Example 6, 2-[3-Chloro-2-(2-oxoindolin-5-yl)phenyl]acetonitrile]"
18,0.316 nM,"O=C1Cc2cc(-c3c(Cl)cccc3OC(F)F)cc(Cl)c2N1 [Example 154, 7-Chloro-5-[2-chloro-6-(difluoromethoxy)phenyl]indolin-2-one]"
19,15800 nM,"Cc1cccc(OC(F)F)c1-c1cc(F)c2c(c1)CC(=O)N2 [Example 122, 5-[2-(Difluoromethoxy)-6-methyl-phenyl]-7-fluoro-indolin-2-one]"
